Assays:
FAAH [1] = biological target: T1, FAAH (Rattus norvegicus, UniProt P97612); experiment: In vitro FAAH activity in rat brain homogenates/membranes; type: biochemical; details: for FAAH activity, percent of control, 100 nM / FAAH activity, percent of control, 10 nM: rat brain homogenates, 15 min pre-incubation
T1 sequence (P97612 1-579): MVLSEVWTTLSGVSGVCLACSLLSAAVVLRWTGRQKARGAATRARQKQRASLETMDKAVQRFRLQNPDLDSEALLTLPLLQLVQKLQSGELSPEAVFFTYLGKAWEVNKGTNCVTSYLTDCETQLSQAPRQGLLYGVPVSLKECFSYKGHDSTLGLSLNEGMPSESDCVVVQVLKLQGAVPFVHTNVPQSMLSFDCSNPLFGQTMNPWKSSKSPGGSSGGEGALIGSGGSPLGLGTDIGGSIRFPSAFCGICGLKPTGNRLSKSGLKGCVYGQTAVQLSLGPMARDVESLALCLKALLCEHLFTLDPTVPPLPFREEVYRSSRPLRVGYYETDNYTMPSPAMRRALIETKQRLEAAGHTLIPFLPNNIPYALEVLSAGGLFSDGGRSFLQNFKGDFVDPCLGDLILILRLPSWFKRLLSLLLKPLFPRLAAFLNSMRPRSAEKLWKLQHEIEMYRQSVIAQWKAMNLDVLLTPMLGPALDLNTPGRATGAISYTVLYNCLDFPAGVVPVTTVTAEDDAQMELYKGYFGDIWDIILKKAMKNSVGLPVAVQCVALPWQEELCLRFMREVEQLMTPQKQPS

carboxylesterases (CEs) = experiment: CE activity in rat liver microsomes; type: biochemical; details: for CEs (10 μM), percent of control: 10 μM in rat liver microsomes; for CEs activity, percent of control: C inhib=10 μM in rat liver microsomes, Table 2
FAAH [2] = biological target: T2, FAAH (Mus musculus, UniProt O08914); experiment: In vivo FAAH inhibition, liver, after oral administration to mice
T2 sequence (O08914 1-579): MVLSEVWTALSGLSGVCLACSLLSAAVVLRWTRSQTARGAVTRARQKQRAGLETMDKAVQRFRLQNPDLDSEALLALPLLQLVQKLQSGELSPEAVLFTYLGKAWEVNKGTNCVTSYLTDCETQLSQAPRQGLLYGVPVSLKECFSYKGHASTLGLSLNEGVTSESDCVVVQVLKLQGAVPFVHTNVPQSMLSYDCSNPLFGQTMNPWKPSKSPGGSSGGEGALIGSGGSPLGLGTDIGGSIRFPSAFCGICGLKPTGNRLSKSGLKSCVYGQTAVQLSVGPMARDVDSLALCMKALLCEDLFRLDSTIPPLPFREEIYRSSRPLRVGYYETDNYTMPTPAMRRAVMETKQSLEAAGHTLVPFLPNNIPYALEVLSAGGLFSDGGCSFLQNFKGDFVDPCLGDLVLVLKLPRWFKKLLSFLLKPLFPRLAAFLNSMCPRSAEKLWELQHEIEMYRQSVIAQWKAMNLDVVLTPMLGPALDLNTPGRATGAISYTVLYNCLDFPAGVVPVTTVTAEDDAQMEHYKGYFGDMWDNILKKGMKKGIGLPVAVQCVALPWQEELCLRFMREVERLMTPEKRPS

FAAH [3] = biological target: T2, FAAH; experiment: In vivo FAAH inhibition, brain, after oral administration to mice
MAGL = biological target: T3, MAGL (Rattus norvegicus, UniProt Q8R431); experiment: MAGL activity in rat cerebellum cytosol; type: biochemical; details: C inhib=100 μM in rat cerebellum cytosol; for MAGL activity, percent of control: Table 2
T3 sequence (Q8R431 1-303): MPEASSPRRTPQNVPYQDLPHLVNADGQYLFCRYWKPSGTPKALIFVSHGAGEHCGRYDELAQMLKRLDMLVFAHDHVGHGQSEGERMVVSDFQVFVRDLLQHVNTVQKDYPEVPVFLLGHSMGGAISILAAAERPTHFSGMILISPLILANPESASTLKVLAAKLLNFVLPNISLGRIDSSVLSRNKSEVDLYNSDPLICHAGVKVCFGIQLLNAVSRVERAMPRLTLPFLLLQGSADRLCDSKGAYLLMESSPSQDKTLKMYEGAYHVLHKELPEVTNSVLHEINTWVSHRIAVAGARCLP

[4] = 30 mg kg^−1 p.o. in mice, 1 h after administration (footnote f), Table 5
[5] = 0.1 mg kg^−1 p.o. in mice, 8 h after administration, Table 4

| SMILES | FAAH activity, percent of control, 10 nM (FAAH [1]; Table 2) | FAAH activity, percent of control, 100 nM (FAAH [1]; Table 2) | CEs activity, percent of control (carboxylesterases (CEs)) | MAGL activity, percent of control (MAGL) | also measured |
| --- | --- | --- | --- | --- | --- |
| CN(C(=O)n1ccnc1)c1ccccc1 [Compound 8 a, N ‐Methyl‐N‐phenyl‐1H‐imidazole‐1‐carboxamide] |  |  |  |  | inhibition at 10 µM (FAAH [1]; read-out: FAAH inhibition): 88% |
| CN(C(=O)n1cnc(-c2ccccc2)c1)c1ccccc1 [Compound 8 b, N ‐Methyl‐N,4‐diphenyl‐1H‐imidazole‐1‐carboxamide] |  |  |  |  | FAAH activity, percent of control, 100 nM (FAAH [1]; Table 5): 84±7% of control; CEs (10 μM), percent of control (carboxylesterases (CEs); Table 5): 105±5% of control; Liver FAAH activity, percent of control (FAAH [2]; [4]): 11±5^[f] Percent of control; Brain FAAH activity, percent of control (FAAH [3]; [4]): 14±17^[f] Percent of control |
| O=C(N1CCN(Cc2ccccc2)CC1)n1cnc(-c2ccccc2)c1 [Compound 8 g] |  |  |  |  | FAAH activity, percent of control, 100 nM (FAAH [1]; Table 5): 1±0% of control; CEs (10 μM), percent of control (carboxylesterases (CEs); Table 5): 52±2% of control; MAGL (100 μM), percent of control (MAGL; Table 5): 61±6% of control |
| CN(C(=O)n1nnc2ccccc21)c1ccc(F)cc1F [Compound 10 b, N ‐(2,4‐Difluorophenyl)‐N‐methyl‐1H‐benzo[d][1,2,3]triazole‐1‐carboxamide] | 35±3% of control | 2±1% of control | 40±1% of control | 70±6% of control |  |
| COc1cc(OC)cc(N(C)C(=O)n2nnc3ccccc32)c1 [Compound 10 c] |  | 76±0% of control |  |  |  |
| O=C(Nc1ccc(F)cc1F)n1nnc2ccccc21 [Compound 10 d, N ‐(2,4‐Difluorophenyl)‐1H‐benzo[d][1,2,3]triazole‐1‐carboxamide] |  | 100±5% of control |  |  |  |
| O=C(N1CCCCCCC1)n1nnc2ccccc21 [Compound 10 m] | 62±6% of control | 15±1% of control | 30±2% of control | 58±6% of control |  |
| C[C@@H]1CCC[C@H](C)N1C(=O)n1nnc2ccccc21 [Compound 10 n] |  | 71±7% of control | 28±1% of control | 35±5% of control |  |
| CC1(C)OCCN1C(=O)n1nnc2ccccc21 [Compound 10 o] | 71±2% of control | 17±3% of control | 60±7% of control | 84±25% of control |  |
| CC1(C)COCN1C(=O)n1nnc2cccnc21 [Compound 11 e] |  |  |  |  | CEs (10 μM), percent of control (carboxylesterases (CEs); Table 4): 61±11% of control; Liver FAAH activity, percent of control (FAAH [2]; [5]): 14±7% of control; inhibition at 0.1 mg/kg (FAAH [2]; mouse, po, read-out: peripheral (liver) FAAH inhibition): > 85%; cerebral (brain) FAAH inhibition (FAAH [3]; 0.1 mg kg^−1, mouse, p.o., 8 h post-dose): over 85%; Brain FAAH activity, percent of control (FAAH [3]; [5]): 12±4% of control; MAGL (100 μM), percent of control (MAGL; Table 4): 72±5% of control |

— article PMC6582431 (Chemmedchem, 2018)
